# Assay results published in patent US20030119797A1, “Methods for selective immunomodulation” (priority 2001, published 2003).
# pIC50: −log10 of the molar value. “Also recorded” adds a separate entry of the source. Where two headings read alike, the source gives them in different places.
# What was measured:
# IBD patients = details: cited from earlier work
# in vivo = details: rat, po, 25 mg/kg
# Method: In another study designed to explore the differences between pimecrolimus and FK506 and to determine whether these differences might be associated with a different tissue distribution, the exposure to pimecrolimus and FK506 in various organs after oral administration were measured. Animals received 2 oral doses of 25 mg/kg in an interval of 2 hours. […] Pimecrolimus was found consistently to have a higher skin/blood concentration ratio than FK506 (2 hours: 7.3 vs. 2.8; 6 hours: 13 vs. […]; 24 hours: 36 vs. 6.0). The AUC0-24h in skin calculated for pimecrolimus was twice as high as with FK506.
# These distribution characteristics are relevant not only for oral, but also for topical application, as the compound enters systemic circulation after permeation through the skin.
# [1] = system: allergic contact dermatitis (ACD); experiment: Skin inflammation and lymph nodes during sensitization and elicitation phase of ACD; type: in vivo
# [2] = system: mixed-lymphocyte reaction; experiment: mixed-lymphocyte reaction (MLR) assay; type: cell-based, mouse
# Text: In addition to the IL-2 reporter gene assay, the concentration of immunosuppressants, such as pimecrolimus and FK506 can be measured by the mixed-lymphocyte reaction (see Meo, “The MLR in the Mouse”, Immunological Methods, Lefkovits and Pernis, Eds., p. 227 Academic Press, NY).
# [3] = system: SCID mice reconstituted with CD4+CD45RBHi T cells (SCID-IBD); experiment: SCID-IBD mouse model, treatment started the day after T cell transfer; type: in vivo
# Text: It is known that the transfer of syngeneic, naive T lymphocytes (CD4^+CD45RB^Hi) into SCID mice results in a severe colitis and wasting disease, SCID-IBD.
# In this study, SCID mice reconstituted with CD4^+CD45RB^Hi T lymphocytes were used. These mice are known to develop chronic colitis with characteristics similar to human IBD, as described above.
# […] […] BW was monitored throughout. On termination, blood was withdrawn, spleen, mesenteric lymph nodes (MLN) and colon were removed. Serum haptoglobin levels were measured (ELISA), colitis was assessed histologically and lymphocyte and neutrophil numbers were calculated from FACS analysis of blood, spleen and MLN cell suspensions.
# In order to determine the efficacy of ASM981 treatment in preventing intestinal mucosal damage in SCID-IBD mice, a histological examination of the colon sections was performed according to defined morphological parameters. All colon sections were assessed according to a scheme awarding degrees of severity governed by the extent of cell infiltration and inflammation with a score of 8 being the maximum.
# [4] = system: systemic immune responses; experiment: Models of systemic immunosuppression (graft-versus-host reaction, antibody formation to sheep red blood cells, kidney transplantation); type: in vivo, rat
# Text: Pimecrolimus (also called ASM981 and ELIDEL®) is an ascomycin macrolactam-derivative with anti-inflammatory properties, chemical name is 33-epichloro-33-desoxy-ascomycin. Pimecrolimus is an ascomycin macrolactam-derivative developed originally for topical and oral treatment of inflammatory skin diseases such as atopic dermatitis and psoriasis. Pimecrolimus binds to macrophilin-12 and inhibits the Ca-dependent phosphatase calcineurin. As a consequence, it inhibits T cell activation and blocks the transcription and release of both Th1 and Th2 inflammatory cytokines. […] Tachyphylaxis has not been observed.
# [5] = in vivo, po
# [6] = system: antigen-induced pulmonary eosinophilia; experiment: Rat model of asthma: antigen-induced pulmonary eosinophilia in actively sensitized Brown Norway Rats; type: in vivo; details: single and multiple challenge models
# Text: Another study looked at the effects of oral administration of pimecrolimus on antigen-induced pulmonary eosinophilia in actively sensitized Brown Norway Rats.
# [7] = system: gene expression in blood cells; details: days 13 or 14 vs baseline, 30 mg b.i.d. oral
# Method: Pimecrolimus was evaluated as treatment for psoriasis using an oral dose of 60 mg (30 mg b.i.d) during a 4-week clinical study. The cohort included 10 patients; 8 received the treatment and 2 received a placebo. Blood samples were collected before the first administration to establish the gene expression baseline and on days 13 or 14 after treatment with pimecrolimus or placebo and submitted to gene expression analysis in order to gain insights into the mechanisms of action of the compound.
# The RNA from blood samples drawn from each patient in the study was extracted and tested on individual DNA microarrays, thus allowing, for each patient, a comparison of gene expression before and after pimecrolimus treatment. […] Genes that were consistently modulated were sorted in functional categories.
# promoter for human IL-2 = experiment: IL-2 reporter gene assay; type: cell-based; details: read-out: IC50 (concentration required for 50% inhibition)
# Text: The reporter gene is any gene expressing a readily observable product, e.g., an enzyme marker such as β-galactosidase or luciferase, or any other suitable enzyme marker. For example, where the enzyme marker is β-galactosidase, the reporter gene is, e.g., a bacterial lacZ gene; where the enzyme marker is luciferase, the gene is, e.g., a Phorinus luciferase gene. […] The promoter gene is a promoter gene for a cytokine or protein for which transcription is stimulated or suppressed by the drug to be monitored.
# Blood samples from the patient are diluted, their effect on gene expression in the above described system is measured, and the assay is standardized using known concentrations of the immunosuppressive material.
# [8] = system: allergen induced airway eosinophilia; experiment: Mouse model of asthma: aeroallergen induced eosinophil influx into the lungs of sensitized mice; type: in vivo
# psoriatic patients = details: human, in vivo
# Method: A clinical study was initiated with an oral formulation of pimecrolimus to treat psoriatic patients. Pimecrolimus was evaluated as treatment for psoriasis using an oral dose of 60 mg (30 mg b.i.d) during a 4-week clinical study. The cohort included 10 patients; 8 received the treatment and 2 received a placebo.
# The dose used in the study was 60 mg/day, given as 30 mg b.i.d. To make this dose the 20 mg tablets were cut in half using a special cutter (Tablettenteiler NR.96) so as to obtain 30 mg of pimecrolimus or a matched amount of placebo.
# In this study the relationship of trough concentration to clinical results was also determined.
# [9] = system: allergic contact dermatitis (ACD); experiment: Rat model of allergic contact dermatitis (ACD); type: in vivo; details: oral, same doses
# [10] = human, in vivo
# Method: In this study pimecrolimus was rapidly absorbed with a median tmax across all the dose groups and collection days of between 0.8 and 2.0 hours. […] There was no effect of age or weight on the apparent clearance of pimecrolimus.
# [11] = system: SCID mice reconstituted with CD4+CD45RBHi T cells (SCID-IBD); experiment: SCID-IBD mouse model, delayed treatment of established IBD; type: in vivo; details: 100 mg/kg/day p.o. started after 7, 14 or 21 days, until 41 days
# Method: In order to determine if pimecrolimus is also effective once IBD is established, SCID mice were treated with pimecrolimus at a dose level of 100 mg/kg/day at days 7, 14 or 21 following the transfer of the disease causing CD4^+ T cells. The study was terminated after 41 days, i.e., the mice were treated for 33, 26 and 19 days, respectively. The results are shown in FIGS. 10-12, and described below.
# SCID mice were reconstituted with 2×10^5 CD4^+CD45RB^Hi T cells and treatment with pimecrolimus (100 mg/kg/day p.o.) started after 7, 14 or 21 days and continued daily until 41 days. Treatment with the placebo formulation started after 7 days. BW was monitored once a week for the first 2 weeks and then twice weekly. Data are expressed as mean percent BW relative to the weight on day 0±s.e.m. for n=9 (PBS), n=8 (ASM(7d) & ASM(21d) and n=7 (ASM(14d) and placebo) mice per group. PBS refers to the non-transferred mice which have been pooled with regard to percent BW values since no treatment dependent changes were found. p<0.01 relative to the placebo-treated group at 41 days.
# SCID mice were reconstituted with 2×10^5 CD4^+CD45RB^Hi T cells and treatment with pimecrolimus (100 mg/kg/day p.o.) started after 7,14 or 21 days and continued daily until 41 days. […] Data are expressed as mean haptoglobin (mg/mL)±s.e.m. for n=9 (PBS), n=8 (ASM(7d)) and n=7 (ASM(14d), ASM(21d) and placebo) mice per group. […]
# CYP3A enzyme subfamily = experiment: Elimination / metabolism of pimecrolimus; type: in vitro ADME
compound,measurement,setting,value
"O=C(O)c1cc(/N=N/c2ccc(S(=O)(=O)Nc3ccccn3)cc2)ccc1O [Sulphasalazine, reference compound]",healthy control subjects reporting side effects related to the sulphapyridine moiety,IBD patients; healthy control subjects,≤ 80%
same,patients reporting side effects related to the sulphapyridine moiety,IBD patients; patients,up to 45%
"C=CC[C@@H]1/C=C(\C)C[C@H](C)C[C@H](OC)[C@H]2O[C@@](O)(C(=O)C(=O)N3CCCC[C@H]3C(=O)O[C@H](/C(C)=C/[C@@H]3CC[C@@H](O)[C@H](OC)C3)[C@H](C)[C@@H](O)CC1=O)[C@H](C)C[C@@H]2OC [FK506, tacrolimus, reference compound]",Kp at 2 h,in vivo,2.8
same,Kp at 24 h,in vivo,6
same,skin/blood concentration ratio,in vivo; 6 h,1.6
same,primary site of action,[1],acts primarily on the subcutaneous lymphoid tissue
same,pIC50,[2]; Mus musculus,9.00
"C[C@@H]1C[C@H]2[C@@H]3CCC4=CC(=O)C=C[C@]4(C)[C@@]3(F)[C@@H](O)C[C@]2(C)[C@@]1(O)C(=O)CO [dexamethasone, Dexamethasone, reference compound]",BW at the doses needed to inhibit colitis,[3]; 3 and 10 mg/kg/day p.o.,steroid-related accelerated loss in BW
"Cn1cnc([N+](=O)[O-])c1Sc1ncnc2nc[nH]c12 [AZA, Azathioprine, reference compound]",patients who get pancreatitis or more severe allergic reactions,"IBD patients; human, in vivo",3-15%
33-epichloro-33-desoxy-ascomycin [Pimecrolimus],therapeutic window of anti-inflammatory activity in the skin versus systemic immunosuppression as compared to FK506,"[4]; rats, q.d., s.c.",clearly increased therapeutic window
same,systemic immunosuppressive effects compared to CyA or FK506,[4]; transplantation and vaccination models,only a low potential to impair systemic immune responses; also recorded: minimal general systemic immunosuppressive effects
same,drug accumulation,[5],does not lead to drug accumulation in the blood or tissues
same,allergen induced airway eosinophilia and IL-4 cytokine production,[6],inhibit
same,AUC0-24h in skin relative to FK506,in vivo,twice as high
same,"exposure in all other tissues, including blood, lymph nodes and kidney",in vivo,lower than to FK506
same,expression of Kallistatin,[7],up-regulated
same,"expression of asthma related genes (RANTES, GALECTIN-3, Thromboxane A2 receptor, Glutathione peroxidase)",[7],specifically and significantly down-regulated
same,"expression of genes necessary for chemotaxis and cellular migration (LFA-1, P-selectin ligand, L-selectin)",[7],dramatic down-regulation
same,"expression of genes of the Macrolactam target pathway (macrophilin 12), cellular activation and proliferation (Histone2, Histone 3.3, cyclin D2)",[7],down-regulate
same,"expression of inflammatory mediators (Leukotriene A4 hydrolase, prostaglandin endoperoxide synthase)",[7],strongly down regulate
same,pIC50,promoter for human IL-2,8.82
same,allergen induced airway eosinophilia and IL-4 cytokine production,"[8]; mouse, single and multiple challenge models",inhibit
same,eosinophil count in the lung and eosinophil peroxidase activity,"[8]; sensitized mice, oral administration",able to reduce
same,"change in physical examination, blood pressure, electrocardiogram, safety laboratory tests or renal function",psoriatic patients,no clinically significant change was observed
same,serious adverse side effects,psoriatic patients,no serious adverse side effects in any patient
same,"colitis, histological examination of colon sections",[3]; 30 mg/kg/day p.o.,moderate to severe inflammation
same,"colitis, histological examination of colon sections",[3]; 60 mg/kg/day p.o.,moderate
same,"inhibition of lymphocyte numbers in blood, spleen and MLN",[3]; 100 mg/kg/day,not observed
same,mice with macroscopically normal feces,[3]; 100 mg/kg/day group,Approximately half of the mice
same,"colitis, histological examination of colon sections",[3]; 100 mg/kg/day p.o.,only mildly inflamed colons
same,neutrophil infiltration into the colon (myeloperoxidase activity in colon homogenates),[3]; 100 mg/kg/day p.o.,completely blocked
same,loss of BW associated with the disease,"[3]; oral, 4 weeks, dose range 30-100 mg/kg/day, dose-responsive",prevented the severe loss of BW
same,diarrhea,"[3]; p.o., 30-100 mg/kg/day",improved in a dose-dependent fashion
same,severe colitis relative to placebo-treated SCID-IBD mice,"[3]; p.o., 30-100 mg/kg/day",significantly inhibited
same,efficacy compared to FK506,[9],superior
same,time to steady-state,[10],6 to 13 days
same,dose dependence of Cmax and AUCτ,[10]; po,dose proportional
same,effect of age or weight on the apparent clearance,[10]; po,no effect
same,trough concentration associated with a significant clinical response in the target epithelial tissue,[10]; po,≥ 7 ng/mL
same,"AUCτ,b Mean ± SD","[10]; po, 10 mg",102.8 ± 41 .4 ng · h/mL
same,"Cmax,b Mean ± SD","[10]; po, 20 mg",42 4 ± 10.8 ng/mL
same,primary site of action,[1],primarily interferes with inflammation in the skin
same,blood and spleen neutrophilia associated with established/ongoing colitis,[11],strongly inhibits
same,loss of BW associated with established/ongoing mild to severe colitis,[11],highly-effective in reversing the loss of BW
same,pIC50,[2],8.05
same,route of elimination,CYP3A enzyme subfamily,predominantly via metabolism involving an oxidative mechanism catalyzed by the CYP3A enzyme subfamily
Infliximab: chimeric anti-TNF alpha antibody,patients in whom remission is achieved,"IBD patients; CD patients, infusion",up to 60%
same,patients who develop side effects,"IBD patients; e.g., nausea, upper respiratory tract infections, abdominal pain and headache",up to 60%
same,patient population which develops human anti-chimeric antibodies,"IBD patients; human, in vivo",13-30%
same,patients who suffered serious infusion reactions,"IBD patients; human, in vivo",Sixteen percent
